In assay [1] the target is T1, recombinant human PKM2 (Homo sapiens, UniProt P14618).
T1 construct: His (N); purchased R&D Systems
The experiment in a line: Human PKM2 activation assay (Kinase-Glo Plus luminescent detection of generated ATP). It is filed as biochemical. The note with it: for Emax: percentage activation normalised to DMSO vehicle (LOW) and 5 μM TEPP-46 (HIGH), read-out: hPKM2 Emax; for EC50: recombinant human PKM2 activation, 4-parameter logistic fit, read-out: hPKM2 EC50. In a few lines:
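N-His-tagged recombinant hPKM2 ([…]) with PEP and ADP was incubated with compound for 60 min at 26 °C, shaking, in 50 mM imidazole, 50 mM KCl, 7 mM MgCl2, 0.01% Tween20, 0.05% BSA, pH 7.2. ATP produced was read by Kinase-Glo Plus luminescence after 15 min.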
On the technique in general: Kinase-Glo reads ATP consumption through a luciferase reaction.

The target in assay [2] is T2, recombinant human PKLR (Homo sapiens, UniProt P30613).
T2 construct: His (N); purchased R&D Systems
The experiment in a line: Human PKLR activation assay (Kinase-Glo Plus luminescent detection of generated ATP). The conditions noted are these: for EC50: activation of recombinant human PKLR, 4-parameter logistic fit, read-out: hPKLR EC50; for Emax: percentage activation normalised to DMSO vehicle (LOW) and 5 μM TEPP-46 (HIGH) controls, read-out: hPKLR Emax (%). It is filed as biochemical.

Assay [3] relates to A549 cells. As to the kind of experiment: A549 cell proliferation in low-serine medium (CellTiter-Glo 2.0 viable cell number). It is filed as cell-based. The note with it: Homo sapiens, 72 h, 3 days, Assay Medium with 20 μM L-serine. The essentials:
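A549 cells (600/well) were plated overnight and then exposed for 3 days at 37 °C to compound in Basal Medium Eagle with 3% dialysed FBS, 2 mM glutamine and 20 μM L-serine. Viable cell number was read by CellTiter-Glo luminescence and normalized to time-zero and DMSO controls. IC50 came from a 4-parameter logistic fit.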

Broadly, the Emax is the size of the effect at its maximum, as opposed to the concentration needed. A word on the EC50: it is the concentration that produces a half-maximal response. By IC50 is commonly meant the midpoint of a concentration-inhibition curve. Low readings indicate inhibition by little substance, high ones a need for much substance.

SMILES strings stand for the structures.

T1 sequence (P14618 2-531 limits assumed): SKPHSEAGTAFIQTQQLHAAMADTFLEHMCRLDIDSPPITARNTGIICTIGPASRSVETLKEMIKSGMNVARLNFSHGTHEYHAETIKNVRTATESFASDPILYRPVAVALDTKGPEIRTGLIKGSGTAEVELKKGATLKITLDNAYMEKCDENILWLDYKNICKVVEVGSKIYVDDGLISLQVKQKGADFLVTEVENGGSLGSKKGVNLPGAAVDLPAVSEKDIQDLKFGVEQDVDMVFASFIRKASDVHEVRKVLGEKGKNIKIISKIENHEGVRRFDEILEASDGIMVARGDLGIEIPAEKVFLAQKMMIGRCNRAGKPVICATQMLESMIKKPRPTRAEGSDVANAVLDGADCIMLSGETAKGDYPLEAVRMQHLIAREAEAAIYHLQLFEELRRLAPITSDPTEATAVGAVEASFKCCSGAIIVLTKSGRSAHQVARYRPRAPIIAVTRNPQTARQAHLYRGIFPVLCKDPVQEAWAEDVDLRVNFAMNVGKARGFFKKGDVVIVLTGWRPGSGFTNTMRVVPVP
T2 sequence (P30613 whole entry): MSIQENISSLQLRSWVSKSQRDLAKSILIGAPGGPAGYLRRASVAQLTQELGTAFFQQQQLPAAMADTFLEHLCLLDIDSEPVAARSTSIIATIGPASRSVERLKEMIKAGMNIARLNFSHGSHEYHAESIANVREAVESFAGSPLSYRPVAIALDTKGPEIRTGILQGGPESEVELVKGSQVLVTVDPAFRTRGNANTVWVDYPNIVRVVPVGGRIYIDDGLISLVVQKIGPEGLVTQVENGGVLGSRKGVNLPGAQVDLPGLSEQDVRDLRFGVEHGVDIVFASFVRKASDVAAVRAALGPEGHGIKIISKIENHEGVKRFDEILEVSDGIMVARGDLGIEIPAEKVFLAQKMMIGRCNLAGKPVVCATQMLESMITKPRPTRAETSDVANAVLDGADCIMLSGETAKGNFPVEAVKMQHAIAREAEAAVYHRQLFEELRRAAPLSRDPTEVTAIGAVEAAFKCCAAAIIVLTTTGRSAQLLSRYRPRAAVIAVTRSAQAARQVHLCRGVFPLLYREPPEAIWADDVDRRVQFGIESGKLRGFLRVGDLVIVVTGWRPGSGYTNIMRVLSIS

Regarding `Cc1cn(C)nc1Cn1ncc2cc(S(=O)(=O)c3ccccc3)ccc2c1=O` [Example 89, 2-((1,4-dimethyl-1H-pyrazol-3-yl)methyl)-6-(phenylsulfonyl)phthalazin-1(2H)-one], the Emax in assay [1] worked out at 101%; in assay [2], 135%. Moreover, the values for the EC50 in assay [1] and in assay [2] were 0.0508 µM and 0.0096 µM, respectively. Also, the IC50 in assay [3] turned out to be 0.0017 µM.
In the same order, the values of `Cc1cc(Cn2ncc3cc(S(=O)(=O)c4ccccc4)ccc3c2=O)n[nH]1` [Example 96, 2-((5-methyl-1H-pyrazol-3-yl)methyl)-6-(phenylsulfonyl)phthalazin-1(2H)-one] are 116%, 128%, 0.0626 µM, 0.0093 µM and 0.0033 µM.
As for `Cn1ccc(Cn2ncc3cc(S(=O)(=O)c4ccccc4)ccc3c2=O)n1` [Example 60, 2-((1-methyl-1H-pyrazol-3-yl)methyl)-6-(phenylsulfonyl)phthalazin-1(2H)-one], in assay [1], the Emax came out at 110% and the EC50 was 0.1 µM. Besides, in assay [2], the EC50 was determined as 0.0341 µM and the Emax was 122%. In assay [3], half-maximal inhibition (IC50) required 0.0036 µM.
Regarding `COc1ccc(S(=O)(=O)c2ccc3c(=O)n(Cc4ccn(C5CC5)n4)ncc3c2)cc1` [Example 1, 2-((1-cyclopropyl-1H-pyrazol-3-yl)methyl)-6-((4-methoxyphenyl)sulfonyl)phthalazin-1(2H)-one], in assay [1], the Emax worked out at 129% and the EC50 turned out to be 0.0276 µM. Further, in assay [2], the EC50 was determined as 0.0047 µM and the Emax was 159%. The IC50 in assay [3] turned out to be 0.0012 µM.
Consider `COc1ccc(Cn2ncc3cc(S(=O)(=O)c4ccccc4)ccc3c2=O)cn1` [Example 41, 2-((6-methoxypyridin-3-yl)methyl)-6-(phenylsulfonyl)phthalazin-1(2H)-one], for which the values for the Emax in assay [1] and in assay [2] were 111% and 109%, respectively. Moreover, the EC50 came out at 0.0421 µM in assay [1] and 0.0158 µM in assay [2]. In assay [3], the IC50 came to 0.002 µM.
Consider `Cc1cc(Cn2ncc3cc(S(=O)(=O)c4ccccc4)ccc3c2=O)nn1C` [Example 90, 2-((1,5-dimethyl-1H-pyrazol-3-yl)methyl)-6-(phenylsulfonyl)phthalazin-1(2H)-one], for which, in assay [1], the Emax turned out to be 106% and the concentration giving a half-maximal response (EC50) is 0.0557 µM. For the same molecule, in assay [2], the EC50 was 0.0101 µM and the Emax was determined as 139%. In assay [3], this molecule yielded an IC50 of 0.003 µM.
With `O=c1c2ccc(S(=O)(=O)c3ccccc3)cc2cnn1Cc1cc[nH]n1` [Example 68, 2-((1H-pyrazol-3-yl)methyl)-6-(phenylsulfonyl)phthalazin-1(2H)-one], in assay [1], the Emax was 117% and the EC50 was determined as 0.0708 µM. For the same molecule, in assay [2], the EC50 worked out at 0.0171 µM and the Emax is 134%. The molecule also displayed an IC50 in assay [3] of 0.0022 µM.
In the case of `Nc1cccc(Cn2ncc3cc(S(=O)(=O)c4ccccc4)ccc3c2=O)n1` [Example 38, 2-((6-aminopyridin-2-yl)methyl)-6-(phenylsulfonyl)phthalazin-1(2H)-one], in assay [1], the Emax came out at 115% and the EC50 worked out at 0.0401 µM. Moreover, in assay [2], the EC50 was determined as 0.0053 µM and the Emax amounted to 149%. In assay [3], this molecule registered an IC50 of 0.0015 µM.
For `Cc1cccc(Cn2ncc3cc(S(=O)(=O)c4ccccc4)ccc3c2=O)n1` [Example 75, 2-((6-methylpyridin-2-yl)methyl)-6-(phenylsulfonyl)phthalazin-1(2H)-one], in assay [1], the Emax turned out to be 108% and the EC50 turned out to be 0.0477 µM. For the same molecule, in assay [2], the EC50 amounted to 0.0115 µM and the Emax was 137%. Inhibition in assay [3] was half-maximal at 0.0022 µM (IC50).
For `COc1ccc(S(=O)(=O)c2ccc3c(=O)n(Cc4cc(C)[nH]n4)ncc3c2)cc1` [Example 54, 6-((4-methoxyphenyl)sulfonyl)-2-((5-methyl-1H-pyrazol-3-yl)methyl)phthalazin-1(2H)-one], in assay [1], the Emax was 112% and the EC50 is 0.0455 µM. In assay [2], the EC50 came to 0.0031 µM and the Emax worked out at 142%. Moreover, the IC50 in assay [3] stood at 0.0022 µM.
In the same order, the values of `COc1ccc(S(=O)(=O)c2ccc3c(=O)n(Cc4cccnc4O)ncc3c2)cc1` [Example 56, 2-((2-hydroxypyridin-3-yl)methyl)-6-((4-methoxyphenyl)sulfonyl)phthalazin-1(2H)-one] are 98%, 0.0519 µM, 0.0101 µM, 131% and 0.0017 µM.
With `O=c1c2ccc(S(=O)(=O)c3ccccc3)cc2cnn1Cc1ccn(C2CC2)n1` [Example 73, 2-((1-cyclopropyl-1H-pyrazol-3-yl)methyl)-6-(phenylsulfonyl)phthalazin-1(2H)-one], in assay [1], the Emax is 99.9% and the EC50 is 0.0302 µM. Besides, in assay [2], the EC50 was 0.014 µM and the Emax is 117%. This molecule displayed an IC50 in assay [3] of 0.0035 µM.
Turning to `NC(=O)c1ncccc1Cn1ncc2cc(S(=O)(=O)c3ccccc3)ccc2c1=O` [Example 9, 3-((1-oxo-6-(phenylsulfonyl)phthalazin-2(1H)-yl)methyl)picolinamide], in assay [1], the Emax amounted to 105% and the EC50 is 0.362 µM. In assay [3], this molecule returned an IC50 of 0.0175 µM.
For `COc1ccc(S(=O)(=O)c2ccc3c(=O)n(Cc4ccn(C)n4)ncc3c2)cc1` [Example 72, 6-((4-methoxyphenyl)sulfonyl)-2-((1-methyl-1H-pyrazol-3-yl)methyl)phthalazin-1(2H)-one], in assay [1], the Emax came out at 103% and the EC50 turned out to be 0.0359 µM. The molecule also registered an IC50 in assay [3] of 0.0032 µM.
In the case of `COc1cccc(Cn2ncc3cc(S(=O)(=O)c4ccccc4)ccc3c2=O)c1` [Example 81, 2-(3-methoxybenzyl)-6-(phenylsulfonyl)phthalazin-1(2H)-one], in assay [1], the Emax is 98.9% and the EC50 came out at 0.0498 µM. Also, 0.0067 µM corresponded to half-maximal inhibition in assay [3] (IC50).
Regarding `O=c1c2ccc(S(=O)(=O)c3ccccc3)cc2cnn1Cc1ccc(OC(F)F)nc1` [Example 62, 2-((6-(difluoromethoxy)pyridin-3-yl)methyl)-6-(phenylsulfonyl)phthalazin-1(2H)-one], in assay [1], the Emax was 89.5% and the EC50 stood at 0.0387 µM. In assay [3], it took 0.0025 µM to reach half-maximal inhibition (IC50).
For the molecule `COc1ccc(S(=O)(=O)c2ccc3c(=O)n(Cc4ccc(OC)cc4C(N)=O)ncc3c2)cc1` [Example 106, 5-methoxy-2-((6-(4-methoxyphenylsulfonyl)-1-oxophthalazin-2(1H)-yl)methyl)benzamide], in assay [1], the Emax came out at 93% and the EC50 came out at 0.142 µM. In assay [3], this molecule yielded an IC50 of 0.0062 µM.
Regarding `NC(=O)c1sccc1Cn1ncc2cc(S(=O)(=O)c3ccccc3)ccc2c1=O` [Example 13, 3-((1-oxo-6-(phenylsulfonyl)phthalazin-2(1H)-yl)methyl)thiophene-2-carboxamide], in assay [1], the Emax is 113% and the EC50 amounted to 0.117 µM. The molecule further displayed an IC50 in assay [3] of 0.0031 µM.
In the case of `NC(=O)c1c[nH]nc1Cn1ncc2cc(S(=O)(=O)c3ccccc3)ccc2c1=O` [Example 15, 3-((1-oxo-6-(phenylsulfonyl)phthalazin-2(1H)-yl)methyl)-1H-pyrazole-4-carboxamide], in assay [1], the Emax stood at 124% and the EC50 amounted to 0.243 µM. This molecule also showed an IC50 in assay [3] of 0.0158 µM.
As to `COc1ccc(F)c(Cn2ncc3cc(S(=O)(=O)c4ccccc4)ccc3c2=O)c1` [Example 33, 2-(2-fluoro-5-methoxybenzyl)-6-(phenylsulfonyl)phthalazin-1(2H)-one], in assay [1], the Emax is 105% and the EC50 worked out at 0.0633 µM. For the same molecule, it took 0.0017 µM to reach half-maximal inhibition in assay [3] (IC50).
Take `O=c1c2ccc(S(=O)(=O)c3ccccc3)cc2cnn1Cc1ccc(OCCO)nc1` [Example 21, 2-((6-(2-hydroxyethoxy)pyridin-3-yl)methyl)-6-(phenylsulfonyl)phthalazin-1(2H)-one]: in assay [1], the Emax was 102% and the EC50 is 0.131 µM. Further, in assay [3], the IC50 was found to be 0.0121 µM.

The values above are taken from patent US20260152487A1 (Sitryx Therapeutics Limited, priority 2021, published 2026).
